Data reported in patent US11944429B2, “Automatically classifying animal behavior” (President and Fellows of Harvard College, priority 2015, dated 2024).

System: mice
Test: Innate behavioral response to odorant in odor box (3D depth imaging, AR-HMM)
Assay type: in vivo, mouse

For `CC1=NC(C)SC1C` (stereo not drawn) [TMT], the “behavioral response to odor-containing quadrant” value (TMT delivered to one quadrant of the box via olfactometer) was “avoided the quadrant containing the predator cue and displayed prolonged periods of immobility”, the “per frame entropy rate with self-transitions” value (after TMT exposure) was 0.64±0.02 bits and the “per frame entropy rate without self-transitions” value (after TMT exposure) was 3.66±0.08 bits. For the same molecule, the “number of times the most commonly-expressed freezing trigram was expressed” value (after TMT exposure, in 300 minutes of imaging) was 716 times, the “average during-sequence velocity of freezing sequences” value (mice in square box, TMT 5% delivered to one quadrant, newly concatenated pausing modules) was −0.14±0.54 mm/sec and the “behavioral modules introduced or eliminated relative to control” value (n=15 in TMT, n=25 control, model co-trained) was “no new modules were introduced or eliminated relative to control”.
